Numbers after ± are expanded uncertainties.
What was measured:
[1] = activity coefficient (dimensionless); of the first substance listed, at infinite dilution; xn = mol fraction of the nth substance listed; conditions: Liquid, x1 = 0
[2] = Liquid, Closed cell (Static) method

Row | SMILES | activity coefficient ([1]; 250.06 K, Chromatography) | activity coefficient ([1]; 270.12 K, Chromatography) | activity coefficient ([1]; 289.97 K, Chromatography) | activity coefficient ([1]; 309.98 K, Chromatography) | activity coefficient ([1]; 329.97 K, Chromatography) | also measured
1 | C=CCC [1-butene] + C1CCOCC1 |  |  |  |  |  | activity coefficient ([1]; 250.06 K, Gas Stripping Method): 1.39 ± 0.01; activity coefficient ([1]; 270.12 K, Gas Stripping Method): 1.39 ± 0.01; activity coefficient ([1]; 289.97 K, Gas Stripping Method): 1.38 ± 0.01; activity coefficient ([1]; 309.98 K, Gas Stripping Method): 1.38 ± 0.01; activity coefficient ([1]; 329.97 K, Gas Stripping Method): 1.38 ± 0.01
2 | C=C(C)C [2-methylpropene] + C1CCOCC1 | 1.39 ± 0.05 | 1.39 ± 0.05 | 1.38 ± 0.05 | 1.38 ± 0.05 | 1.37 ± 0.05 | 
3 | C1CCOCC1 [tetrahydropyran] |  |  |  |  |  | vapor or sublimation pressure ([2]; 257.96 K): 0.98 ± 0.01 kPa; vapor or sublimation pressure ([2]; 260.07 K): 1.13 ± 0.01 kPa; vapor or sublimation pressure ([2]; 270.28 K): 2.16 ± 0.02 kPa; vapor or sublimation pressure ([2]; 279.82 K): 3.7 ± 0.02 kPa; vapor or sublimation pressure ([2]; 289.94 K): 6.28 ± 0.02 kPa; vapor or sublimation pressure ([2]; 290 K): 6.3 ± 0.02 kPa; vapor or sublimation pressure ([2]; 300.01 K): 10.23 ± 0.04 kPa; vapor or sublimation pressure ([2]; 332.98 K): 40 ± 0.1 kPa; vapor or sublimation pressure ([2]; 341.09 K): 53.33 ± 0.12 kPa; vapor or sublimation pressure ([2]; 347.72 K): 66.66 ± 0.15 kPa; vapor or sublimation pressure ([2]; 353.38 K): 79.99 ± 0.18 kPa; vapor or sublimation pressure ([2]; 358.37 K): 93.33 ± 0.21 kPa; vapor or sublimation pressure ([2]; 360.22 K): 98.66 ± 0.22 kPa
4 | C=CC [propene] + C1CCOCC1 | 1.42 ± 0.05 | 1.42 ± 0.05 | 1.43 ± 0.05 | 1.44 ± 0.05 | 1.44 ± 0.05 | 
5 | CC(F)F [1,1-difluoroethane] + C1CCOCC1 | 1.57 ± 0.06 | 1.64 ± 0.07 | 1.67 ± 0.07 | 1.69 ± 0.07 | 1.66 ± 0.07 | 
6 | COC [dimethyl ether] + C1CCOCC1 |  |  |  | 1.26 ± 0.04 |  | activity coefficient ([1]; 250 K, Chromatography): 1.29 ± 0.04; activity coefficient ([1]; 270.07 K, Chromatography): 1.26 ± 0.04; activity coefficient ([1]; 289.98 K, Chromatography): 1.26 ± 0.04; activity coefficient ([1]; 330 K, Chromatography): 1.26 ± 0.04
7 | C/C=C/C [(E)-2-butene] + C1CCOCC1 | 1.43 ± 0.05 | 1.41 ± 0.05 | 1.4 ± 0.05 | 1.4 ± 0.05 | 1.4 ± 0.05 | 
8 | C=CC=C [1,3-butadiene] + C1CCOCC1 | 0.95 ± 0.03 | 0.97 ± 0.03 | 1.01 ± 0.03 | 1.05 ± 0.03 | 1.09 ± 0.03 | 
9 | C/C=C\C [(Z)-2-butene] + C1CCOCC1 |  |  |  | 1.31 ± 0.05 |  | activity coefficient ([1]; 250 K, Chromatography): 1.36 ± 0.05; activity coefficient ([1]; 270.07 K, Chromatography): 1.33 ± 0.05; activity coefficient ([1]; 289.98 K, Chromatography): 1.32 ± 0.05; activity coefficient ([1]; 330 K, Chromatography): 1.32 ± 0.05
10 | CCC [propane] + C1CCOCC1 | 2.08 ± 0.09 | 1.98 ± 0.09 | 1.9 ± 0.08 | 1.84 ± 0.08 | 1.79 ± 0.08 | 
11 | CCCl [chloroethane] + C1CCOCC1 |  |  |  | 0.94 ± 0.03 |  | activity coefficient ([1]; 250 K, Chromatography): 0.9 ± 0.03; activity coefficient ([1]; 270.07 K, Chromatography): 0.89 ± 0.03; activity coefficient ([1]; 289.98 K, Chromatography): 0.89 ± 0.03; activity coefficient ([1]; 330 K, Chromatography): 0.98 ± 0.03
12 | CCCC [butane] + C1CCOCC1 | 2.04 ± 0.09 | 1.94 ± 0.09 | 1.85 ± 0.08 | 1.78 ± 0.08 | 1.72 ± 0.07 | 
13 | CC(C)C [2-methylpropane] + C1CCOCC1 | 2.14 ± 0.1 | 2.04 ± 0.09 | 1.94 ± 0.09 | 1.88 ± 0.08 | 1.82 ± 0.08 | 
14 | CCCCCC [hexane] + C1CCOCC1 |  |  |  | 1.67 ± 0.07 |  | activity coefficient ([1]; 290 K, Chromatography): 1.76 ± 0.07; activity coefficient ([1]; 299.89 K, Chromatography): 1.71 ± 0.07; activity coefficient ([1]; 319.99 K, Chromatography): 1.65 ± 0.07; activity coefficient ([1]; 330.02 K, Chromatography): 1.61 ± 0.06
